# In ChEMBL document CHEMBL1681651, “A broad spectrum anticancer nucleoside with selective toxicity against human colon cells in vitro” (2011):
# Assays:
# Type in all cases: functional
# [1] = tested on: 786-0; test: Growth inhibition of human 786-0 cells assessed as cell growth at 10 uM after 48 hrs by SRB assay; details: 786-0, 48 h, read-out: Activity
# [2] = tested on: OVCAR-8; test: Growth inhibition of human OVCAR8 cells after 48 hrs by […] growth inhibition assay; details: OVCAR-8, 48 h
# [3] = tested on: SK-MEL-5; test: Growth inhibition of human SK-MEL-5 cells assessed as cell growth at 0.1 uM after 48 hrs by SRB assay; details: SK-MEL-5, 48 h, read-out: Activity
# [4] = tested on: MDA-MB-231; test: Growth inhibition of human MDA-MB-231 cells assessed as cell growth at 0.1 uM after 48 hrs by SRB assay; details: MDA-MB-231, 48 h, read-out: Activity
# [5] = tested on: ACHN; test: Growth inhibition of human ACHN cells assessed as cell growth at 10 uM after 48 hrs by SRB assay; details: read-out: Activity
# [6] = tested on: 786-0; test: Growth inhibition of human 786-0 cells after 48 hrs by […] growth inhibition assay; details: 786-0, 48 h
# [7] = tested on: HT-29; test: Growth inhibition of human HT-29 cells assessed as cell growth at 1 mM after 48 hrs by SRB assay; details: HT-29, 48 h, read-out: Activity
# [8] = tested on: KM12; test: Growth inhibition of human KM12 cells assessed as cell growth at 0.1 uM after 48 hrs by SRB assay; details: KM12, 48 h, read-out: Activity
# [9] = tested on: SNB-75; test: Growth inhibition of human SNB75 cells after 48 hrs by […] growth inhibition assay; details: SNB-75, 48 h
# [10] = tested on: DU-145; test: Growth inhibition of human DU145 cells assessed as cell growth at 0.1 uM after 48 hrs by SRB assay; details: DU-145, 48 h, read-out: Activity
# [11] = tested on: HOP-92; test: Growth inhibition of human HOP92 cells assessed as cell growth at 10 uM after 48 hrs by SRB assay; details: HOP-92, 48 h, read-out: Activity
# [12] = tested on: HCT-116; test: Growth inhibition of human HCT116 cells assessed as cell growth at 10 uM after 48 hrs by SRB assay; details: HCT-116, 48 h, read-out: Activity
# [13] = tested on: HOP-62; test: Growth inhibition of human HOP62 cells assessed as cell growth at 10 uM after 48 hrs by SRB assay; details: HOP-62, 48 h, read-out: Activity
# [14] = tested on: CAKI-1; test: Growth inhibition of human Caki1 cells assessed as cell growth at 0.1 uM after 48 hrs by SRB assay; details: CAKI-1, 48 h, read-out: Activity
# [15] = tested on: SK-OV-3; test: Growth inhibition of human SKOV3 cells after 48 hrs by […] growth inhibition assay; details: SK-OV-3, 48 h
# [16] = tested on: EKVX; test: Growth inhibition of human EKVX cells assessed as cell growth at 10 uM after 48 hrs by SRB assay; details: read-out: Activity
# [17] = tested on: OVCAR-8; test: Growth inhibition of human OVCAR8 cells assessed as cell growth at 0.1 uM after 48 hrs by SRB assay; details: OVCAR-8, 48 h, read-out: Activity
# [18] = tested on: M14; test: Growth inhibition of human M14 cells assessed as cell growth at 1 uM after 48 hrs by SRB assay; details: M14, 48 h, read-out: Activity
# [19] = Growth inhibition of human […] cells assessed as cell growth at 1 mM after 48 hrs by SRB assay; details: read-out: Activity
# [20] = tested on: SNB-19; test: Growth inhibition of human SNB19 cells assessed as cell growth at 1 uM after 48 hrs by SRB assay; details: SNB-19, 48 h, read-out: Activity
# [21] = tested on: OVCAR-4; test: Growth inhibition of human OVCAR4 cells assessed as cell growth at 100 uM after 48 hrs by SRB assay; details: OVCAR-4, 48 h, read-out: Activity
# [22] = tested on: SF-539; test: Growth inhibition of human SF539 cells assessed as cell growth at 1 uM after 48 hrs by SRB assay; details: SF-539, 48 h, read-out: Activity
# [23] = tested on: HT-29; test: Growth inhibition of human HT-29 cells assessed as cell growth at 10 uM after 48 hrs by SRB assay; details: HT-29, 48 h, read-out: Activity
# [24] = tested on: HOP-62; test: Growth inhibition of human HOP62 cells assessed as cell growth at 1 uM after 48 hrs by SRB assay; details: HOP-62, 48 h, read-out: Activity
# [25] = tested on: CAKI-1; test: Growth inhibition of human Caki1 cells after 48 hrs by […] growth inhibition assay; details: CAKI-1, 48 h
# [26] = tested on: SNB-19; test: Growth inhibition of human SNB19 cells assessed as cell growth at 0.1 uM after 48 hrs by SRB assay; details: SNB-19, 48 h, read-out: Activity
# [27] = tested on: RXF 393; test: Growth inhibition of human RXF393 cells assessed as cell growth at 100 uM after 48 hrs by SRB assay; details: RXF 393, 48 h, read-out: Activity
# [28] = tested on: EKVX; test: Growth inhibition of human EKVX cells assessed as cell growth at 0.1 uM after 48 hrs by SRB assay; details: read-out: Activity
# [29] = tested on: PC-3; test: Growth inhibition of human PC3 cells assessed as cell growth at 10 uM after 48 hrs by SRB assay; details: PC-3, 48 h, read-out: Activity
# [30] = tested on: M14; test: Growth inhibition of human M14 cells assessed as cell growth at 0.1 uM after 48 hrs by SRB assay; details: M14, 48 h, read-out: Activity
# [31] = tested on: NCI-H522; test: Growth inhibition of human NCI-H522 cells assessed as cell growth at 100 uM after 48 hrs by SRB assay; details: NCI-H522, 48 h, read-out: Activity
# [32] = tested on: NCI/ADR-RES; test: Growth inhibition of human NCI/ADR-RES cells after 48 hrs by SRB assay
# [33] = tested on: U-251; test: Growth inhibition of human U251 cells after 48 hrs by […] growth inhibition assay; details: U-251, 48 h
# [34] = read-out: LC50 (the source's name)
# [35] = read-out: pLC50 (the source's name) (converted)
smiles,measurement,setting,value
CCOC(=O)C[C@H]1[C@@H](O[Si](C)(C)C(C)(C)C)[C@H](n2cnc3c(NC(=O)Nc4ccccc4)ncnc32)O[C@@H]1CNC(=O)NC,growth at 10 µM,[1],86%
same,GI50,[2]; read-out: GI50,4.92 µM
same,CC50,[2]; [34],> 100 µM
same,TGI,[2]; read-out: TGI,77.2 µM
same,GI50,[2]; read-out: pGI50 (converted),4.9 µM
same,CC50,[2]; [35],> 100 µM
same,TGI,[2]; read-out: pTGI (converted),77.6 µM
same,growth at 0.1 µM,[3],96%
same,growth at 0.1 µM,[4],101%
same,growth at 10 µM,[5],96%
same,GI50,[6]; read-out: GI50,2 µM
same,CC50,[6]; [34],17.9 µM
same,TGI,[6]; read-out: TGI,5.21 µM
same,GI50,[6]; read-out: pGI50 (converted),2 µM
same,CC50,[6]; [35],17.8 µM
same,TGI,[6]; read-out: pTGI (converted),5.25 µM
same,growth at 1000 µM,[7],3%
same,growth at 0.1 µM,[8],107%
same,GI50,[9]; read-out: GI50,4.56 µM
same,CC50,[9]; [34],> 100 µM
same,TGI,[9]; read-out: TGI,> 100 µM
same,GI50,[9]; read-out: pGI50 (converted),4.57 µM
same,CC50,[9]; [35],> 100 µM
same,TGI,[9]; read-out: pTGI (converted),> 100 µM
same,growth at 0.1 µM,[10],110%
same,growth at 10 µM,[11],12%
same,growth at 10 µM,[12],78%
same,growth at 10 µM,[13],97%
same,growth at 0.1 µM,[14],88%
same,GI50,[15]; read-out: GI50,21 µM
same,CC50,[15]; [34],> 100 µM
same,TGI,[15]; read-out: TGI,> 100 µM
same,GI50,[15]; read-out: pGI50 (converted),20.9 µM
same,CC50,[15]; [35],> 100 µM
same,TGI,[15]; read-out: pTGI,> 100 µM
same,growth at 10 µM,[16],91%
same,growth at 0.1 µM,[17],99%
same,growth at 1 µM,[18],82%
same,growth at 1000 µM,[19],-57%
same,growth at 1 µM,[20],95%
same,growth at 100 µM,[21],53%
same,growth at 1 µM,[22],91%
same,growth at 10 µM,[23],104%
same,growth at 1 µM,[24],92%
same,GI50,[25]; read-out: GI50,29.7 µM
same,CC50,[25]; [34],> 100 µM
same,TGI,[25]; read-out: TGI,> 100 µM
same,GI50,[25]; read-out: pGI50 (converted),29.5 µM
same,CC50,[25]; [35],> 100 µM
same,TGI,[25]; read-out: pTGI (converted),> 100 µM
same,growth at 0.1 µM,[26],92%
same,growth at 100 µM,[27],-46%
same,growth at 0.1 µM,[28],92%
same,growth at 10 µM,[29],103%
same,growth at 0.1 µM,[30],90%
same,growth at 100 µM,[31],32%
same,GI50,[32]; read-out: GI50,> 100 µM
same,CC50,[32]; [34],> 100 µM
same,TGI,[32]; read-out: TGI,> 100 µM
same,GI50,[32]; read-out: pGI50 (converted),> 100 µM
same,CC50,[32]; [35],> 100 µM
same,TGI,[32]; read-out: pTGI (converted),> 100 µM
same,GI50,[33]; read-out: GI50,4.69 µM
same,CC50,[33]; [34],76 µM
same,TGI,[33]; read-out: TGI,20.9 µM
same,GI50,[33]; read-out: pGI50 (converted),4.68 µM
same,CC50,[33]; [35],75.9 µM
same,TGI,[33]; read-out: pTGI (converted),20.9 µM
CNC(=O)OC[C@H]1O[C@@H](n2cnc3c(NC(=O)Nc4ccccc4)ncnc32)[C@H](O[Si](C)(C)C(C)(C)C)[C@@H]1O[Si](C)(C)C(C)(C)C,growth at 10 µM,[1],94.6%
same,growth at 10 µM,[5],94.6%
same,growth at 10 µM,[11],54.7%
same,growth at 10 µM,[12],66.7%
same,growth at 10 µM,[13],104%
same,growth at 10 µM,[16],104%
same,growth at 10 µM,[23],81.3%
same,growth at 10 µM,[29],58.9%
